Source: patent US8637684B2, “Tautomycetin and tautomycetin analog biosynthesis” (Wisconsin Alumni Research Foundation, priority 2010, dated 2014)

Key:
Lyp = biological target: T1, Lyp (Homo sapiens, UniProt Q9Y2R2); experiment: PTP activity assay with pNPP as substrate: Lyp; format: biochemical; settings: pNPP as substrate at Km, pH 7.0, 25° C., I = 0.15 M
T1 sequence (Q9Y2R2 1-807): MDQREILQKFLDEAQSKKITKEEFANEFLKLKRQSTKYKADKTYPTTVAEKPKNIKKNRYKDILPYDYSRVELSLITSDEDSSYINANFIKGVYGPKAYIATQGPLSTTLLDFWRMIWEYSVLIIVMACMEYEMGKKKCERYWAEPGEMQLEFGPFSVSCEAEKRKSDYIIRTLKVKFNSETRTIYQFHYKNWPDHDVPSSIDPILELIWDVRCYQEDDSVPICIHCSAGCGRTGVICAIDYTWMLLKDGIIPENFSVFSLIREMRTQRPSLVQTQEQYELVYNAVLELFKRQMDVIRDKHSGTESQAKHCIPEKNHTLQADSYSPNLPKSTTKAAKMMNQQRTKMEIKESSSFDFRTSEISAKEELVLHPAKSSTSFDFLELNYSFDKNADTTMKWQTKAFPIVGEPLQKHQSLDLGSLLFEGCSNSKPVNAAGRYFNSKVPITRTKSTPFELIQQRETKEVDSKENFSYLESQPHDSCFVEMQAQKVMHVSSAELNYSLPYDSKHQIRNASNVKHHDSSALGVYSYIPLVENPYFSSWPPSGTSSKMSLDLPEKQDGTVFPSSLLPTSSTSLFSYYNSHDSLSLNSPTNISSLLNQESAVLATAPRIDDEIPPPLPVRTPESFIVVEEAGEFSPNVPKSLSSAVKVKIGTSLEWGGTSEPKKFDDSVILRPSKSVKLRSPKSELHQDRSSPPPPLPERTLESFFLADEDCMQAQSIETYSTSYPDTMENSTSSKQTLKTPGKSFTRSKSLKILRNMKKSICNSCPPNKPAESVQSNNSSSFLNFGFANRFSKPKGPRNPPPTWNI
Protocol: The PTP activity was assayed using pNPP as a substrate at 25° C. in 50 mM 3,3-dimethylglutarate buffer, pH 7.0, containing 1 mM EDTA with an ionic strength of 0.15 M adjusted by NaCl. TTM, TTN and the engineered analogs were analyzed for inhibition of a panel of PTPs at 10 μM compound concentration. For each enzyme screened, test compounds were diluted to 20 μM in 100 μL and combined with 50 μL pNPP at a concentration of 4×Km. The reaction was initiated by the addition of 50 μL of 4× concentrated enzyme and pNPP was allowed to convert to the product p-nitrophenol. The reaction was quenched by the addition of 50 μL of 5N NaOH. Nonenzymatic hydrolysis of pNPP was corrected by measuring the control without the addition of enzyme. Production of p-nitrophenol was monitored by a Spectra MAX385 microplate spectrophotometer (Molecular Devices) at 405 nm using a molar extinction coefficient of 18,000 M^−1 cm^−1. IC50 values were calculated by fitting the absorbance at 405 nm versus inhibitor concentration to the following equation: AI/A0=IC50/(IC50+[I]) where AI is the absorbance at 405 nm of the sample in the presence of inhibitor; Ao is the absorbance at 405 nm in the absence of inhibitor; and [I] is the concentration of the inhibitor.

[1] = test system: TCR-mediated tyrosine phosphorylation in Jurkat T cells; experiment: Anti-CD3 (TCR) induced tyrosine phosphorylation in Jurkat T cells, immunoblot; format: cell-based; settings: 2-4 μM, 2 hours pretreatment, anti-CD3 stimulation
Protocol: (§1) Jurkat T cells were grown at 37° C. under an atmosphere of 5% CO2 in RPMI medium 1640 supplemented with 10% FBS. Cells were pretreated with different concentrations of TTN, TTN D-1, or TTM for 2 hours and stimulated with […] anti-CD3 antibody (OKT3; eBioscience) for 5 min and 30 min, respectively. Subsequently, cells were spinned down at 2000 rpm in 4° C., and cell pellets were lysed in 50 mM Tris-HCl (pH 7.5), 150 mM NaCl, 10% glycerol, 1% NP-40, 50 mM NaF, 10 mM pyrophosphate, 5 mM idoacetate, 1 mM sodium orthovanadate, and the protease inhibitor mixture. After 30 min lysing on ice, the cell lysates were centrifuged at 13,200 rpm for 15 min. Total cellular proteins were separated by SDS/PAGE and transferred electrophoretically to nitrocellulose membrane, which was immunoblotted by appropriate antibodies followed by incubation with HRP-conjugated secondary antibodies. Blots were developed using Pierce Pico ECL reagent (Thermo) according to the manufacturer's instructions.
(§2) TTN induces immunosuppression by suppression of TCR-mediated tyrosine phosphorylation and ERK1/2 activity in T cells (Shim et al., 2002). However, the mechanism of action for TTN's ability to block TCR signaling remains undefined. […]

[2] = test system: TCR-mediated ERK1/2 activation in Jurkat T cells; experiment: Anti-CD3 (TCR) induced ERK1/2 activation in Jurkat T cells, immunoblot; format: cell-based; settings: 2 hours pretreatment, anti-CD3 stimulation
Protocol: as §1, §2

[3] = test system: SHP2/E76K-expressing hematopoietic progenitors; experiment: 3H-thymidine incorporation assay of transduced bone marrow LDMNCs with GM-CSF; format: cell-based; settings: 2 μM TTN for 24 hrs, GM-CSF 1 ng/mL
Protocol: Transduced, EGFP+ cells were subjected to ^3H-thymidine incorporation assays, as previously described (Munugalavadla et al., 2007), or plated at a concentration of 8000 cells/mL in 0.9% methylcellulose-based media containing IMDM, 2 mM glutamine, 1% penicillin/streptomycin, 80 μM β-mercaptoethanol, 30% FBS, and GM-CSF 1 ng/mL or with saturating concentrations of growth factors including IL-3 200 U/mL, erythropoietin 4 U/mL, and stem cell factor (SCF) 100 ng/mL. All growth factors were from Peprotech. Cultures were incubated in a humidified incubator at 37° C. in 5% CO2 for 7 days and were scored for total colonies and for morphology to determine colony forming unit (CFU)-granulocyte-macrophage (GM) or CFU-monocyte (M).
For biochemical studies, macrophage progenitor cells expressing empty vector (MIEG3), wild-type SHP2, or SHP2/E76K were serum- and growth factor-deprived for 24 hours. Cells were pre-treated with DMSO or 2 μM TTN for 2 hours, and then cultures either remained unstimulated or were stimulated with GM-CSF at 50 ng/mL for 60 minutes. […] To provide further evidence that SHP2 is a molecular target of TTN, the inventors determined the X-ray crystal structure of SHP2 in complex with TTN D-1, as crystallization attempts for the SHP2-TTN complex were unsuccessful. […]

T cell proliferation = settings: relative to cyclosporine A (CsA); cited from earlier work

## tautomycetin [TTN]
Lyp
  IC50: 20 µM
[1]
  effect on TCR-mediated tyrosine phosphorylation: efficiently attenuated
[2]
  effect on TCR-mediated ERK1/2 activation: strongly reduced
[3]
  effect on GM-CSF-stimulated proliferation of SHP2/E76K-expressing progenitors: effectively reduced the proliferation
T cell proliferation
  concentration for inhibition of T cell proliferation, lower than that for maximal inhibition by cyclosporine A: 100 fold
